Read-outs that look alike come from different tables or passages of the source.
How the values were obtained:
[1] = test system: glioblastoma (SNB-19) cells; experiment: WST-1 cell viability assay, SNB-19; type: cell-based, human; conditions: for IC50: Homo sapiens, WST-1, 72 h
Method: (§1) Evaluation of the effect of new betulin derivatives on the viability of the cultured cells was performed using the WST-1(water soluble tetrazolium salt) assay. Betulin 1 and cisplatin were used as the reference compounds.
(§2) The synthesized compounds and references were tested for cytotoxic activity in vitro against human cancer cell lines such as amelanotic melanoma (C-32, ATCC, Rockville, MD, USA), glioblastoma (SNB-19, DSMZ, Braunschweig, Germany), and breast cancer (T47D, and MDA-MB-231, ATCC, Rockville, MD, USA). Cell cultures were maintained using DMEM (Lonza, Basel, Switzerland) supplemented with 10% fetal bovine serum (FBS) (Biological Industries Cromwell, CT, USA) and penicillin (10,000 U/mL) –streptomycin (10 mg/mL) mix (Lonza, Basel, Switzerland).
(§3) Cultures were performed in 96-well plates (Nunc Thermo Fisher Scientific, Waltham, MA, USA). Cells were seeded at 5 × 10^4/well and incubated for 24 h (at 37 °C, 5% CO2, constant humidity). Then, the medium was replaced with a fresh one with the addition of test compounds in the concentration: 25; 12.5; 6.25; 3.12; 1.56; 0.78; 0.39; 0 µg/mL and incubated again for a further 72 h. After this time, the WST-1 test (Roche Molecular Biochemicals, Mannheim, Germany) was performed to assess the metabolic activity of the cells. The principle of the WST-1 colorimetric test is based on the ability of live cells to decompose bright red tetrazole salts of WST-1 to dark red formazan. The reaction is mediated by mitochondrial dehydrogenases and correlates with the number of cells and their metabolic activity. The absorbance was measured at λ = 450 nm with a UVM340 microplate reader (Biogenet, Józefów, Poland). Results were expressed as a mean value of at least three independent experiments performed in triplicate.

[2] = test system: amelanotic melanoma (C-32) cells; experiment: WST-1 cell viability assay, C-32; type: cell-based, human; conditions: Homo sapiens, WST-1, 72 h
Method: as §1, §2, §3

[3] = test system: breast cancer T47D cells; experiment: WST-1 cell viability assay, T47D; type: cell-based, human; conditions: for IC50: Homo sapiens, T47D, read-out: IC50 ± SD, T47D
Method: as §1, §2, §3

[4] = test system: breast cancer MDA-MB-231 cells; experiment: WST-1 cell viability assay, MDA-MB-231; type: cell-based, human; conditions: for IC50: Homo sapiens, read-out: IC50 ± SD, MDA-MB-231
Method: as §1, §2, §3

[5] = RP-TLC experimental lipophilicity; type: physicochemical; conditions: for RM0 / logPTLC: RP-TLC; for RM0: acetone/Tris buffer pH 7.4, extrapolated to zero acetone; for logPTLC: from RM0 by calibration equation; for -b: slope of regression plot RM = RM0 + bC
Excerpt: Lipophilicity is an important physicochemical parameter related to the biological activity of compounds. This descriptor, contained in Lipiński’s rule of five, concerns the transport of a compound through the biological membrane system and the formation of a compound–receptor complex. To assess the lipophilic nature of triterpenoids 3–5, 6a–6e, and 7a–7e, the reverse phase chromatography (RP-TLC) method was used (chromatographic procedure by RP-TLC is included in the Supplementary Materials). The theoretical characteristics of the chromatographic parameters (RM0, log PTLC) of the tested derivatives were also performed. […]
Chromatographic procedure by RP-TLC
The experimental lipophilicity parameters was determined using reversed-phase thin-layer chromatography (RP-TLC). The stationary phase was an aluminium backed silica gel RP-18 F254 S plates (Merck, Darmstadt, Germany). Chloroform solutions of reference compounds […]
(acetanilide, 4-bromoacetophenone, benzophenone, anthracene, DDT) and triterpenes 3-5, 6a-6e and 7a-7e were spotted on to the plates in the amount of 2 µL. The chromatograms were performed in triplicate for each compound. The chromatographic chambers were filled of mobile phases consisting of a mixture of acetone (POCh, Gliwice, Poland) and aqueous solution of buffer Tris [(tris-hydroxymethyl)aminomethane] (Fluka, Loughborough, 0.2 M, pH 7.4). The percent acetone volume was varied within the range of 90-60%, in 5% increments. The spots of compounds were visualized by spraying the plates with 10% ethanolic solution of sulphuric acid (VI) and heating for 3 min at 110°C [60]]. The RM values were calculated by the equation RM = log (1/Rf-1) on the basis of average Rf values. The RM0 parameters were obtained by extrapolating on the acetone content to zero, according to the equation RM = RM0 + bC (C – the percentage concentration of acetone in the mobile phase, b – the slope of the regression plot).
The experimental lipophilicity as log PTLC for triterpenes 3-5, 6a-6e and 7a-7e was calculated […]
obtained on the correlation between the literature log Plit values and the experimental RM0 values […]
Table S5. The theoretical values of lipophilicity for tested compounds 3-5, 6a-6e and 7a- […]
Table S6. The correlation matrix for theoretically obtained lipophilicity parameters of compounds 3-5, 6a-6e and 7a-7e. […]

[6] = SNB-19, 72 h, read-out: IC50 ± SD, SNB-19
[7] = C32, 72 h, read-out: IC50 ± SD, C-32

SMILES: C=C(COP(=O)(OCC)OCC)[C@@H]1CC[C@]2(C(=O)O)CC[C@]3(C)C(CCC4[C@@]5(C)CCC(O)C(C)(C)C5CC[C@]43C)C12 (stereo partly shown) [Compound 9]
- IC50 ([1]; SNB-19, 72 h, Table 5, betulonic/betulinic acid derivatives, read-out: IC50, SNB-19): 5.98 ± 0.43 µM
- IC50 fold higher than 30-phosphonate derivative of 3-acetylbetulinic acid ([1]; SNB-19): more than 4.5 fold
- IC50 ([2]; C32, 72 h, Table 5, betulonic/betulinic acid derivatives, read-out: IC50, C-32): > 50 µM
- activity against T47D (in words) [3]: no activity
- activity against MDA-MB-231 (in words) [4]: no activity

SMILES: C=C(C)[C@@H]1CC[C@]2(CO)CC[C@]3(C)[C@H](CC[C@@H]4[C@@]5(C)CC[C@H](O)C(C)(C)[C@@H]5CC[C@]43C)[C@@H]12 [Betulin]
- IC50 ([1]; SNB-19, read-out: IC50 ± SD, SNB-19): 9.93 ± 0.25 µM
- IC50 ([2]; C32, read-out: IC50 ± SD, C-32): 15.6 ± 1.11 µM
- IC50 ([3]; WST-1, 72 h): > 50 µM
- IC50 ([4]; MDA-MB-231, WST-1, 72 h): 7.76 ± 1.87 µM

SMILES: C#CC(=O)OC[C@]12CC[C@@H](C(=C)COP(=O)(OCC)OCC)C1C1CCC3[C@@]4(C)CC[C@H](OC(=O)C#C)C(C)(C)C4CC[C@@]3(C)[C@]1(C)CC2 (stereo partly shown) [Compound 6a, 30-Diethoxyphosphoryloxy-3,28-dipropynoylbetulin]
- melting point: 127 to 130 °C
- RM0 [5]: 6.893
- logPTLC [5]: 8.929
- -b [5]: 0.080
- IC50 ([3]; 72 h): 9.5 ± 0.74 µM

SMILES: C=C(COP(=O)(OCC)OCC)C1CCC2(CO)CCC3(C)C(CCC4C5(C)CCC(O)C(C)(C)C5CCC43C)C12 (stereo not shown) [Compound 5, 30-Diethoxyphosphoryloxybetulin]
- IC50 [1, 6]: 10.9 ± 1.33 µM
- melting point: 194 to 195 °C
- RM0 [5]: 3.719
- logPTLC [5]: 4.914
- -b [5]: 0.046
- IC50 [2, 7]: 43.5 ± 2.5 µM
- IC50 ([3]; 72 h): 1.04 ± 0.14 µM
- IC50 ([4]; MDA-MB-231, 72 h): 0.4 ± 0.02 µM

SMILES: C=C(COP(=O)(OCC)OCC)[C@@H]1CC[C@]2(COC(=O)C#CC3CC3)CC[C@]3(C)C(CCC4[C@@]5(C)CC[C@H](O)C(C)(C)C5CC[C@]43C)C12 (stereo partly shown) [Compound 7c, 28-(2-Cyclopropylpropynoyl)-30-diethoxyphosphoryloxybetulin]
- IC50 [1, 6]: 6.29 ± 0.12 µM
- melting point: 133 to 134 °C
- RM0 [5]: 5.587
- logPTLC [5]: 7.277
- -b [5]: 0.064
- IC50 [2, 7]: 11.9 ± 0.52 µM
- IC50 ([3]; 72 h): > 50 µM
- IC50 ([4]; MDA-MB-231, 72 h): 9.11 ± 0.39 µM

SMILES: C=C(COP(=O)(OCC)OCC)[C@@H]1CC[C@]2(COC(=O)C#CC)CC[C@]3(C)C(CCC4[C@@]5(C)CC[C@H](OC(=O)C#CC)C(C)(C)C5CC[C@]43C)C12 (stereo partly shown) [Compound 6b, 3,28-Di(2-butynoyl)-30-diethoxyphosphoryloxybetulin]
- IC50 [1, 6]: 4.65 ± 0.51 µM
- melting point: 66 to 70 °C
- RM0 [5]: 6.884
- logPTLC [5]: 8.917
- -b [5]: 0.078
- IC50 [2, 7]: > 50 µM
- IC50 ([3]; 72 h): > 50 µM
- IC50 ([4]; MDA-MB-231, 72 h): 21.2 ± 1.24 µM

SMILES: C=C(COP(=O)(OCC)OCC)[C@@H]1CC[C@]2(COC(C)=O)CC[C@]3(C)C(CCC4[C@@]5(C)CC[C@H](OC(C)=O)C(C)(C)C5CC[C@]43C)C12 (stereo partly shown) [Compound 4, 3,28-Diacetoxy-30-diethoxyphosphoryloxybetulin]
- IC50 [1, 6]: 5.01 ± 0.78 µM
- melting point: 61 to 63 °C
- RM0 [5]: 5.740
- logPTLC [5]: 7.470
- -b [5]: 0.064
- IC50 [2, 7]: 33.9 ± 1.59 µM
- IC50 ([3]; 72 h): 1.3 ± 0.13 µM
- IC50 ([4]; MDA-MB-231, 72 h): 14.5 ± 1.37 µM

SMILES: C=C(CO)[C@@H]1CC[C@]2(COC(C)=O)CC[C@]3(C)C(CCC4[C@@]5(C)CC[C@H](OC(C)=O)C(C)(C)C5CC[C@]43C)C12 (stereo partly shown) [Compound 3, 3,28-Diacetyl-30-hydroxybetulin]
- RM0 [5]: 5.655
- logPTLC [5]: 7.362
- -b [5]: 0.064
